Experimental data taken from the kinase profiling compilation of Christmann-Franck et al. (2016).

Legend:
Test in all cases: KINOMEscan competition binding
Conditions in all cases: compound 10.0 µM; call rule not given here
[1] = target: FLT3 (human) (UniProt P36888)
[2] = target: NTRK2 (human) (UniProt Q16620)
[3] = target: STK4 (human) (UniProt Q13043)
[4] = target: TEK (human) (UniProt Q02763)
[5] = target: SRC (human) (UniProt P12931)
[6] = target: DAPK3 (human) (UniProt O43293)
[7] = target: FES (human) (UniProt P07332)
[8] = target: BRSK2 (human) (UniProt Q8IWQ3)
[9] = target: KDR (human) (UniProt P35968)
[10] = target: ULK3 (human) (UniProt Q6PHR2)
[11] = target: EPHA5 (human) (UniProt P54756)
[12] = target: CSNK1E (human) (UniProt P49674)
[13] = target: BMP2K (human) (UniProt Q9NSY1)
[14] = target: ABL2 (human) (UniProt P42684)
[15] = target: MERTK (human) (UniProt Q12866)
[16] = target: FLT1 (human) (UniProt P17948)
[17] = target: STK10 (human) (UniProt O94804)
[18] = target: LCK (human) (UniProt P06239)
[19] = target: STK11 (human) (UniProt Q15831)
[20] = target: ACVR2B (human) (UniProt Q13705)
[21] = target: AURKC (human) (UniProt Q9UQB9)
[22] = target: CSNK1D (human) (UniProt P48730)
[23] = target: BMX (human) (UniProt P51813)
[24] = tested on: EIF2AK4 KD2 (human), Q9P2K8 [S808G]
[25] = target: CAMK1D (human) (UniProt Q8IU85)
[26] = target: SYK (human) (UniProt P43405)
[27] = target: EPHB1 (human) (UniProt P54762)
[28] = target: PDGFRB (human) (UniProt P09619)
[29] = target: NLK (human) (UniProt Q9UBE8)
[30] = target: MAP4K3 (human) (UniProt Q8IVH8)
[31] = target: ABL1 (human) (UniProt P00519)
[32] = target: STK38L (human) (UniProt Q9Y2H1)
[33] = target: EPHA8 (human) (UniProt P29322)
[34] = target: FRK (human) (UniProt P42685)
[35] = target: TNNI3K (human) (UniProt Q59H18)
[36] = target: TNK2 (human) (UniProt Q07912)
[37] = target: MAPK8 (human) (UniProt P45983)
[38] = target: CSNK1G2 (human) (UniProt P78368)
[39] = target: STK17A (human) (UniProt Q9UEE5)
[40] = target: CDK2 (human) (UniProt P24941)
[41] = target: STK16 (human) (UniProt O75716)

Chain of CAMK1D (human) (Q8IU85 whole entry, looked up): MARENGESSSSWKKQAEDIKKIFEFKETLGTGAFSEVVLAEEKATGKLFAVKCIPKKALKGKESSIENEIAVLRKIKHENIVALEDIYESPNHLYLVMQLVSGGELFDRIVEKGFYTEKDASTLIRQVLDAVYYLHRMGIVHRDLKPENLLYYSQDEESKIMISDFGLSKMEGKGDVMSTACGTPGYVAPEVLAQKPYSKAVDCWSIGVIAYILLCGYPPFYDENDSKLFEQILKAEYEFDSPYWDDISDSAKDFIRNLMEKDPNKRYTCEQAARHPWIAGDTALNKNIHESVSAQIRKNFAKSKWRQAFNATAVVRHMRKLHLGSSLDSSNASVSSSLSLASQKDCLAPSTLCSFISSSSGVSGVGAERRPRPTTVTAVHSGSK
Chain of STK4 (human) (Q13043 whole entry, looked up): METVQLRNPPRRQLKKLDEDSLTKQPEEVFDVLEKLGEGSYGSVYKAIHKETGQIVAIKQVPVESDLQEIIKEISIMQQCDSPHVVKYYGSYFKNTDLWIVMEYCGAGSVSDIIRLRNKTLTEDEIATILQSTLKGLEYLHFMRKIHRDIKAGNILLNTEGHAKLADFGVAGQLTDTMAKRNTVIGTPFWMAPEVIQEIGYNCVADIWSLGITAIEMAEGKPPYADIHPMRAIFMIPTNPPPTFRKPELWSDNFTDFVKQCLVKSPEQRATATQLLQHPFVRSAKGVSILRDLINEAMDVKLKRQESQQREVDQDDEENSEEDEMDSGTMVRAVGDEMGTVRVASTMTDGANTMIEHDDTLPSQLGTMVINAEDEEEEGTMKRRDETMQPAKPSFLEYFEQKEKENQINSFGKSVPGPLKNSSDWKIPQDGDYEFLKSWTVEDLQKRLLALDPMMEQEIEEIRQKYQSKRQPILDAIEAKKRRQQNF
Chain of EPHA5 (human) (P54756 whole entry, looked up): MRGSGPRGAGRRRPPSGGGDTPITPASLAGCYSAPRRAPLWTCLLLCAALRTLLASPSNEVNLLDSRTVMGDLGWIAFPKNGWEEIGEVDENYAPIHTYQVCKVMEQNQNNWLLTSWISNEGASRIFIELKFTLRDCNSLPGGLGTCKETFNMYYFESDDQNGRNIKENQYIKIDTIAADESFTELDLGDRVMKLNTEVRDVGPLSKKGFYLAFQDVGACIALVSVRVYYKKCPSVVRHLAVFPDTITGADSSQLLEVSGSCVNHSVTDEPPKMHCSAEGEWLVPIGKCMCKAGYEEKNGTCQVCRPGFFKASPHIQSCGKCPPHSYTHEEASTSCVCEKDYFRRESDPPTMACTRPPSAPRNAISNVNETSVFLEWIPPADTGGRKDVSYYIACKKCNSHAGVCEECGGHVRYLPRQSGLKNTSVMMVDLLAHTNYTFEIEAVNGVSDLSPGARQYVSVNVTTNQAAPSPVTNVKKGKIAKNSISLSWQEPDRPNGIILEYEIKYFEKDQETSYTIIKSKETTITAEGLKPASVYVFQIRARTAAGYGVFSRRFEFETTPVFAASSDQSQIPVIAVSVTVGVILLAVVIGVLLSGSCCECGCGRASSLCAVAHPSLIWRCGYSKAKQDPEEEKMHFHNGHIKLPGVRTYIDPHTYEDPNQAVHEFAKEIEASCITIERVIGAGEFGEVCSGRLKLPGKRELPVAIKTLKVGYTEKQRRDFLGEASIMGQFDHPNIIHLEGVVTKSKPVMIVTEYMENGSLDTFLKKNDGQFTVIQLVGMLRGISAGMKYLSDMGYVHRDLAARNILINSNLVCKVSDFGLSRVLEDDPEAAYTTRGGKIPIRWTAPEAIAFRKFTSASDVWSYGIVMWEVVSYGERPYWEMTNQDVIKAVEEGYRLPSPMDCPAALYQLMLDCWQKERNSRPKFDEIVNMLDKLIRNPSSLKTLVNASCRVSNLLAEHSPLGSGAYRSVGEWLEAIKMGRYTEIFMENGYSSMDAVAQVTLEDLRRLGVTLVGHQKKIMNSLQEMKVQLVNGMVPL
Chain of STK11 (human) (Q15831 whole entry, looked up): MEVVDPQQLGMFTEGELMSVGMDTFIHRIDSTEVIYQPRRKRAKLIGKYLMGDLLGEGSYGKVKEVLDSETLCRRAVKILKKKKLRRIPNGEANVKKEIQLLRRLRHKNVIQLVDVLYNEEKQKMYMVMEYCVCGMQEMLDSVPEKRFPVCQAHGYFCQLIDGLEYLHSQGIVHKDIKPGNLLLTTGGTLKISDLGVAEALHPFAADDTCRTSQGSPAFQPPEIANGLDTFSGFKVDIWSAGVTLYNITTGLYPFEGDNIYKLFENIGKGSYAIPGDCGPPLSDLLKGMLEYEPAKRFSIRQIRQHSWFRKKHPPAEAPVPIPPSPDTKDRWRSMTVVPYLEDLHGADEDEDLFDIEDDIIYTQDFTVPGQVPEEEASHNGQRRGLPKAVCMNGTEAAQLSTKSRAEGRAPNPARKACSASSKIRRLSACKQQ
Chain of NLK (human) (Q9UBE8 whole entry, looked up): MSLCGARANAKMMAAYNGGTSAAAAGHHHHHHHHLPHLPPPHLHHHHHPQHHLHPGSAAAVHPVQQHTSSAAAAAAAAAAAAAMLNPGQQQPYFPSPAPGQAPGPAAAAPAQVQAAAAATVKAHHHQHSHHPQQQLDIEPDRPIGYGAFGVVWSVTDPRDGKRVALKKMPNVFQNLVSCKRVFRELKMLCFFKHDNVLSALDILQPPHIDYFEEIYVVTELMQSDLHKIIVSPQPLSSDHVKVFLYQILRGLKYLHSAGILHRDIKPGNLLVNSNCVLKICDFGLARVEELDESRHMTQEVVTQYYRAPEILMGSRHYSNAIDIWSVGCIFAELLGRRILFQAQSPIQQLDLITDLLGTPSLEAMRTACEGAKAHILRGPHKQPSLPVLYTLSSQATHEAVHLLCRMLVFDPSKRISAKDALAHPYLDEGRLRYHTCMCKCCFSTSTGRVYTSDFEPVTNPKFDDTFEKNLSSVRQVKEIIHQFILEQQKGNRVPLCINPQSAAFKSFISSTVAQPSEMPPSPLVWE
Chain of TNNI3K (human) (Q59H18 whole entry, looked up): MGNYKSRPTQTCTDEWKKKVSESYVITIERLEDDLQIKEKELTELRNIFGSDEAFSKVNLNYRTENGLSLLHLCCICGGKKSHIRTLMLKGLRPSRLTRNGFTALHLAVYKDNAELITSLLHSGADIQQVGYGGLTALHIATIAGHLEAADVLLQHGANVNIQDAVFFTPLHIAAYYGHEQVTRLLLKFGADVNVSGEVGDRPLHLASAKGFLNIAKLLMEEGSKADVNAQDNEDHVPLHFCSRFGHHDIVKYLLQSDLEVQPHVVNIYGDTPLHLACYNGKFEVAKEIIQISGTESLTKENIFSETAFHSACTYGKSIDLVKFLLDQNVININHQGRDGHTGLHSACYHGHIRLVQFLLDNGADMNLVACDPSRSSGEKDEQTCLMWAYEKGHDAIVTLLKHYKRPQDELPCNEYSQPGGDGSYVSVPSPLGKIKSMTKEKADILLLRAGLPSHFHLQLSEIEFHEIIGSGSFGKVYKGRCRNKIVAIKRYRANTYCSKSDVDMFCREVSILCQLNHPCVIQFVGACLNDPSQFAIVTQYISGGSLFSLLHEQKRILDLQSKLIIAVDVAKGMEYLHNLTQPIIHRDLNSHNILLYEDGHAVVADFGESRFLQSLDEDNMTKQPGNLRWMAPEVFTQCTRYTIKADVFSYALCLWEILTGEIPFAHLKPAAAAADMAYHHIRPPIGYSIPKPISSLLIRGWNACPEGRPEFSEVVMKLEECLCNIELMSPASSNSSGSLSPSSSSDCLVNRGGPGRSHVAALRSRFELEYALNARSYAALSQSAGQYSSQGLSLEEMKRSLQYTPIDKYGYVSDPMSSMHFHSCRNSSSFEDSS
Chain of DAPK3 (human) (O43293 whole entry, looked up): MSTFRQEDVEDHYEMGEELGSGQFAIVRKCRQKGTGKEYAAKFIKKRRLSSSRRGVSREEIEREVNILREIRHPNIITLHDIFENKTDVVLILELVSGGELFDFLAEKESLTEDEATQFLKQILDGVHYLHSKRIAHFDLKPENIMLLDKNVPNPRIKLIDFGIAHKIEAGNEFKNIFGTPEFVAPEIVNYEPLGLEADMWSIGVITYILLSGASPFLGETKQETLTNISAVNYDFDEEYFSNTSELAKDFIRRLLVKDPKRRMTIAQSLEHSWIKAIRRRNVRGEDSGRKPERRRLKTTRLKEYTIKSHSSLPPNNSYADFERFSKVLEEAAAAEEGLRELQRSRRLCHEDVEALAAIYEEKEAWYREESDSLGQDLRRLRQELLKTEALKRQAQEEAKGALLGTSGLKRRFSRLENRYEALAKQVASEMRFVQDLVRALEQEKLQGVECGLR
Chain of MAP4K3 (human) (Q8IVH8 whole entry, looked up): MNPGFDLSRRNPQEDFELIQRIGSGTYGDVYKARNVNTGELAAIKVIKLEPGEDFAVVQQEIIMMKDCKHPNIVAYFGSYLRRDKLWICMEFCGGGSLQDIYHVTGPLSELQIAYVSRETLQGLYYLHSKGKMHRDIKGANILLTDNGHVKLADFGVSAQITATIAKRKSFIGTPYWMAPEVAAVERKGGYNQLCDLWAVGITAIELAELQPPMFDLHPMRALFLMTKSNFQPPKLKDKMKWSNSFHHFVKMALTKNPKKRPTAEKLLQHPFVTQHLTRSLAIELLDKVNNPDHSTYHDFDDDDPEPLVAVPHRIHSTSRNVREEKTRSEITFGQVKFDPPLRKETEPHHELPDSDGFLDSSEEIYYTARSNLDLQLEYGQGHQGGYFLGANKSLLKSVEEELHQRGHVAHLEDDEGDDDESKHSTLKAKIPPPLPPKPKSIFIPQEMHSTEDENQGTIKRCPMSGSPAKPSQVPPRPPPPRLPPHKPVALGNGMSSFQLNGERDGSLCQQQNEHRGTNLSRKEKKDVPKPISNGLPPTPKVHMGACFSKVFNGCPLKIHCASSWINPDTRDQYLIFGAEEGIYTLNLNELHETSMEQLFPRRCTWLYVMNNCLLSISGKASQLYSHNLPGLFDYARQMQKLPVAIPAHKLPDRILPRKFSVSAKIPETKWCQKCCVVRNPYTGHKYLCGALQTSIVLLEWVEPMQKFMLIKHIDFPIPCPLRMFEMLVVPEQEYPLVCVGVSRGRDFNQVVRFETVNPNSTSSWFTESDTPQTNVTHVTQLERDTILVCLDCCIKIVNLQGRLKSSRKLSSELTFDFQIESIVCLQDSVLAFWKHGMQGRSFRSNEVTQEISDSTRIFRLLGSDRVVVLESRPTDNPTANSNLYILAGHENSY

Row | kinase still bound, per cent of control [1] | kinase still bound, per cent of control [2] | kinase still bound, per cent of control [3] | kinase still bound, per cent of control [4] | kinase still bound, per cent of control [5] | kinase still bound, per cent of control [6] | kinase still bound, per cent of control [8] | kinase still bound, per cent of control [9] | kinase still bound, per cent of control [10] | kinase still bound, per cent of control [11] | kinase still bound, per cent of control [12] | kinase still bound, per cent of control [13] | kinase still bound, per cent of control [15] | kinase still bound, per cent of control [16] | kinase still bound, per cent of control [17] | kinase still bound, per cent of control [18] | kinase still bound, per cent of control [19] | kinase still bound, per cent of control [21] | kinase still bound, per cent of control [22] | kinase still bound, per cent of control [23] | SMILES | further results
1 | no effect (inactive) | no effect (inactive) | no effect (inactive) | no effect (inactive) | no effect (inactive) | no effect (inactive) | no effect (inactive) | no effect (inactive) | no effect (inactive) | no effect (inactive) | 0% | no effect (inactive) | no effect (inactive) | no effect (inactive) | no effect (inactive) | no effect (inactive) | no effect (inactive) | no effect (inactive) | 0% | no effect (inactive) | CC(=O)c1c(-c2ccncc2)[nH]c(-c2ccncc2)c1C | kinase still bound, per cent of control [7]: no effect (inactive); kinase still bound, per cent of control [14]: no effect (inactive); kinase still bound, per cent of control [20]: no effect (inactive); kinase still bound, per cent of control [24]: no effect (inactive); kinase still bound, per cent of control [25]: no effect (inactive); kinase still bound, per cent of control [26]: no effect (inactive); kinase still bound, per cent of control [27]: no effect (inactive); kinase still bound, per cent of control [28]: no effect (inactive); kinase still bound, per cent of control [29]: no effect (inactive); kinase still bound, per cent of control [30]: no effect (inactive); kinase still bound, per cent of control [31]: no effect (inactive); kinase still bound, per cent of control [32]: no effect (inactive); kinase still bound, per cent of control [33]: no effect (inactive); kinase still bound, per cent of control [34]: no effect (inactive); kinase still bound, per cent of control [35]: no effect (inactive); kinase still bound, per cent of control [36]: no effect (inactive)
2 | no effect (inactive) | no effect (inactive) | no effect (inactive) | no effect (inactive) | no effect (inactive) | no effect (inactive) | no effect (inactive) | no effect (inactive) | no effect (inactive) | no effect (inactive) | 0% | no effect (inactive) | no effect (inactive) | no effect (inactive) | no effect (inactive) | no effect (inactive) | no effect (inactive) | no effect (inactive) | 0% | no effect (inactive) | c1ccc(-c2n[nH]cc2-c2ccnc3ccccc23)nc1 | kinase still bound, per cent of control [37]: no effect (inactive); kinase still bound, per cent of control [38]: no effect (inactive); kinase still bound, per cent of control [7]: no effect (inactive); kinase still bound, per cent of control [39]: no effect (inactive); kinase still bound, per cent of control [40]: no effect (inactive); kinase still bound, per cent of control [24]: no effect (inactive); kinase still bound, per cent of control [25]: no effect (inactive); kinase still bound, per cent of control [26]: no effect (inactive); kinase still bound, per cent of control [27]: no effect (inactive); kinase still bound, per cent of control [28]: no effect (inactive); kinase still bound, per cent of control [41]: no effect (inactive); kinase still bound, per cent of control [29]: no effect (inactive); kinase still bound, per cent of control [30]: no effect (inactive); kinase still bound, per cent of control [32]: no effect (inactive); kinase still bound, per cent of control [33]: no effect (inactive); kinase still bound, per cent of control [34]: no effect (inactive); kinase still bound, per cent of control [35]: no effect (inactive); kinase still bound, per cent of control [36]: no effect (inactive)
3 | 0% | 0% | 0% | 0.4% | 0% | 2.1% | 0% | 0% | 0% | 0% | 2.4% | 0% | 0% | 0.1% | 0% | 0% | 1% | 0.5% | no effect (inactive) | 1.4% | CCS(=O)(=O)Nc1ccc2c(c1)[C@H](/C(=N/c1ccc(CN3CCCCC3)cc1)c1ccccc1)C(=O)N2 | kinase still bound, per cent of control [37]: 0%; kinase still bound, per cent of control [38]: no effect (inactive); kinase still bound, per cent of control [14]: 4.8%; kinase still bound, per cent of control [39]: 0%; kinase still bound, per cent of control [20]: 2.4%; kinase still bound, per cent of control [40]: 28.3%; kinase still bound, per cent of control [24]: 0%; kinase still bound, per cent of control [25]: 0.7%; kinase still bound, per cent of control [26]: 1.3%; kinase still bound, per cent of control [27]: 0%; kinase still bound, per cent of control [28]: 0%; kinase still bound, per cent of control [41]: 0%; kinase still bound, per cent of control [29]: no effect (inactive); kinase still bound, per cent of control [30]: 0.1%; kinase still bound, per cent of control [31]: 0.6%; kinase still bound, per cent of control [32]: 0%; kinase still bound, per cent of control [33]: 0.4%; kinase still bound, per cent of control [34]: 0.5%; kinase still bound, per cent of control [35]: 7.6%; kinase still bound, per cent of control [36]: 0%
